Assay [1] relates to CCl4-induced liver fibrosis in mice. Put plainly: CCl4-induced liver fibrosis in mice (therapeutic model). To be noted: for fibrosis score, Mean ± SEM: day 43. It counts as in vivo, C57BL/6JNarl mice. The method, then: (A) sirius red stain; (B), the inhibition of MPTOL056 on CCl4-induced liver fibrosis. […] C57BL/6JNarl mice (8 weeks) were treated with CCl4 (1 μl/μg/BW, q.w.) or PBS (1 μl/μg/BW, q.w.) by i.p. injection for 6 weeks. MPTOL056 (25, 50 and 100 mg/kg/day, q.d.) and silymarin (200 mg/kg/day, q.d.) were administered orally to CCl4-injected mice from 2 weeks to 6 weeks. On day 43, the mice were sacrificed, and the α-SMA analysis of liver tissue was performed by IHC staining (original magnification, x100) (see FIG. 11). […]

Assay [2] relates to BLM-induced lung fibrosis in mice. Nature of the assay: Bleomycin (BLM)-induced lung fibrosis mice model. To be noted: for fibrosis score, Mean ± SEM: H&E histology day 39. It counts as in vivo, C57BL/6JNarl mice. On the procedure: FIGS. 8 (A) and (B) show the effect of L056 effect on fibrosis score of BLM-induced lung fibrosis in mice. C57BL/6 mice (8 weeks) were treated with bleomycin (BLM, 0.05 U/50 μl) or PBS (50 μl) by endotracheal administration. […] On day 39, the mice were sacrificed and, the histologic analysis of lung tissue was performed by hematoxylin-eosin (H&E) staining (original magnification, x100). […] (A), Histology fibrosis score plot; (B), H&E staining plot.
FIG. 9 (A) to (D) show the inhibitory effects on pro-fibrogenic mediators, collagen, CTGF, fibronectin and […], respectively. (A), H&E staining plot for collagen; (B), H&E staining plot for CTGF; (C), H&E staining plot for fibronectin; (D), H&E staining plot for α-SMA.
C57BL/6JNarl mice (8 weeks) were treated with bleomycin (BLM, 0.05 U/50 μl) or PBS (50 μl) by endotracheal administration. […] On day 39, the mice were sacrificed, and the histologic analysis of lung tissue was performed by hematoxylin-eosin (H&E) staining (original magnification, x100).

[3] abbreviates: CCl4 mice, 25 mg (mg/kg/day, q.d., oral, weeks 2 to 6).
Setting [4] is: CCl4 mice, 50 mg (mg/kg/day, q.d., oral, weeks 2 to 6).
Where [5] appears, read: CCl4 mice, 100 mg (mg/kg/day, q.d., oral, weeks 2 to 6).
Where [6] appears, read: BLM mice, 25 mg (mg/kg/day, q.d., oral, days 10 to 38).
[7] abbreviates: BLM mice, 50 mg (mg/kg/day, q.d., oral, days 10 to 38).
Setting [8] is: BLM mice, 100 mg (mg/kg/day, q.d., oral, days 10 to 38).

Consider `O=C(Nc1ccncc1)c1ccc(CNC2=C(Cl)C(=O)c3ccccc3C2=O)cc1` [Example L056, 4-(((3-chloro-1,4-dioxo-1,4-dihydronaphthalen-2-yl)amino)methyl)-N-(pyridin-4-yl)benzamide], for which the “Efficacy % (reduction of fibrosis score)” value in assay [1] (setting [3]) was found to be 45.00%; in assay [1] (setting [4]), 46.67%; in assay [1] (setting [5]), 68.33%; in assay [2] (setting [6]), 50.94%; in assay [2] (setting [7]), 83.90%; in assay [2] (setting [8]), 67.38%. Besides, the “fibrosis score, Mean ± SEM” value in assay [1] (setting [3]) is 2.40 ± 0.53; in assay [1] (setting [4]), 2.35 ± 0.25; in assay [1] (setting [5]), 1.70 ± 0.18; in assay [2] (setting [6]) it was 3.27 ± 0.03; in assay [2] (setting [7]), 2.03 ± 0.21; in assay [2] (setting [8]), 2.65 ± 0.17. In addition, the “efficacy in inhibition compared with silymarin” value in assay [1] (CCl4 mice, silymarin 200 mg/kg/day, FIG. 10(B)) was “higher than silymarin”. In assay [1] (mice, 25, 50 and 100 mg/kg/day oral, FIG. 10(B)), the “inhibition of CCl4-induced liver fibrosis (in words)” value is listed as “dose-dependent”. In assay [2] (BLM mice, FIG. 8(B)), the “efficacy in the inhibition compared with PBS control” value is reported as “significantly higher than the PBS control”. In addition, the “pro-fibrogenic mediators expression (collagen, CTGF, fibronectin, α-SMA) in lung” value in assay [2] (bleomycin-induced mice lung fibrosis model, FIG. 9) is given as “inhibited”. Besides, in assay [2] (mice, 25, 50, 100 mg/kg/day oral, FIG. 8(A)), the “inhibition of BLM-induced lung fibrosis (in words)” value was “inhibits BLM-induced lung fibrosis in a dose-dependent manner”.

The record behind these values is US12453708B2, “Aminonaphthoquinone compounds for treatment and/or prevention of fibrosis diseases” (CALGENT BIOTECHNOLOGY CO., LTD., priority 2015, dated 2025).
